Test results taken from patent US20140120232A1, “ACID TASTE/ACID SMELL-REDUCING AGENT” (T. HASEGAWA CO., LTD., priority 2011, published 2014).

Assay: Sensory evaluation of Vermont drink containing the agent
Details: ten panels
How it was run: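 Tridecadienal or tridecatrienal isomers added at various concentrations to a Vermont-flavoured drink (apple-cider vinegar, honey, liquid sugar, citric acid, trisodium citrate, 100 mL total). Ten panelists assessed acid taste/acid smell and aldehyde-type off-odour, and the concentration giving the best acid taste/smell quality was selected.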

SMILES: CCCCC/C=C\C/C=C\C=C\C=O [(E,Z,Z)-2,4,7-tridecatrienal]
- A: number of panels, acid taste/acid smell extreme and cause irritation (0.005 ppt): 10
- B: number of panels, acid taste/acid smell slightly strong and slightly cause irritation (0.005 ppt): 0
- C: number of panels, acid taste/acid smell slightly unpleasant (0.005 ppt): 0
- Flavor judgment: number of panels who judged acid taste/acid smell quality the highest (0.005 ppt): 0
- N: number of panels, irritation of acid reduced to give a mild acid taste (0.005 ppt): 0
- X: number of panels, acid taste reduced but piercing odor characteristic to aldehydes unpleasant (0.005 ppt): 0
- A: number of panels, acid taste/acid smell extreme and cause irritation (0.02 ppt): 8
- B: number of panels, acid taste/acid smell slightly strong and slightly cause irritation (0.02 ppt): 1
- C: number of panels, acid taste/acid smell slightly unpleasant (0.02 ppt): 1
- Flavor judgment: number of panels who judged acid taste/acid smell quality the highest (0.02 ppt): 0
- N: number of panels, irritation of acid reduced to give a mild acid taste (0.02 ppt): 0
- X: number of panels, acid taste reduced but piercing odor characteristic to aldehydes unpleasant (0.02 ppt): 0
- A: number of panels, acid taste/acid smell extreme and cause irritation (0.1 ppt): 7
- B: number of panels, acid taste/acid smell slightly strong and slightly cause irritation (0.1 ppt): 2
- C: number of panels, acid taste/acid smell slightly unpleasant (0.1 ppt): 1
- Flavor judgment: number of panels who judged acid taste/acid smell quality the highest (0.1 ppt): 0
- N: number of panels, irritation of acid reduced to give a mild acid taste (0.1 ppt): 0
- X: number of panels, acid taste reduced but piercing odor characteristic to aldehydes unpleasant (0.1 ppt): 0
- A: number of panels, acid taste/acid smell extreme and cause irritation (0.2 ppt): 4
- B: number of panels, acid taste/acid smell slightly strong and slightly cause irritation (0.2 ppt): 3
- C: number of panels, acid taste/acid smell slightly unpleasant (0.2 ppt): 3
- Flavor judgment: number of panels who judged acid taste/acid smell quality the highest (0.2 ppt): 0
- N: number of panels, irritation of acid reduced to give a mild acid taste (0.2 ppt): 0
- X: number of panels, acid taste reduced but piercing odor characteristic to aldehydes unpleasant (0.2 ppt): 0
- A: number of panels, acid taste/acid smell extreme and cause irritation (0.5 ppt): 0
- B: number of panels, acid taste/acid smell slightly strong and slightly cause irritation (0.5 ppt): 1
- C: number of panels, acid taste/acid smell slightly unpleasant (0.5 ppt): 3
- Flavor judgment: number of panels who judged acid taste/acid smell quality the highest (0.5 ppt): 1
- N: number of panels, irritation of acid reduced to give a mild acid taste (0.5 ppt): 6
- X: number of panels, acid taste reduced but piercing odor characteristic to aldehydes unpleasant (0.5 ppt): 0
- A: number of panels, acid taste/acid smell extreme and cause irritation (1 ppb): 0
- B: number of panels, acid taste/acid smell slightly strong and slightly cause irritation (1 ppb): 0
- C: number of panels, acid taste/acid smell slightly unpleasant (1 ppb): 3
- Flavor judgment: number of panels who judged acid taste/acid smell quality the highest (1 ppb): 0
- N: number of panels, irritation of acid reduced to give a mild acid taste (1 ppb): 3
- X: number of panels, acid taste reduced but piercing odor characteristic to aldehydes unpleasant (1 ppb): 4
- A: number of panels, acid taste/acid smell extreme and cause irritation (1 ppt): 0
- B: number of panels, acid taste/acid smell slightly strong and slightly cause irritation (1 ppt): 1
- C: number of panels, acid taste/acid smell slightly unpleasant (1 ppt): 2
- Flavor judgment: number of panels who judged acid taste/acid smell quality the highest (1 ppt): 3
- N: number of panels, irritation of acid reduced to give a mild acid taste (1 ppt): 7
- X: number of panels, acid taste reduced but piercing odor characteristic to aldehydes unpleasant (1 ppt): 0
- A: number of panels, acid taste/acid smell extreme and cause irritation (5 ppt): 0
- B: number of panels, acid taste/acid smell slightly strong and slightly cause irritation (5 ppt): 0
- C: number of panels, acid taste/acid smell slightly unpleasant (5 ppt): 3
- Flavor judgment: number of panels who judged acid taste/acid smell quality the highest (5 ppt): 3
- N: number of panels, irritation of acid reduced to give a mild acid taste (5 ppt): 7
- X: number of panels, acid taste reduced but piercing odor characteristic to aldehydes unpleasant (5 ppt): 0
- A: number of panels, acid taste/acid smell extreme and cause irritation (10 ppb): 0
- B: number of panels, acid taste/acid smell slightly strong and slightly cause irritation (10 ppb): 0
- C: number of panels, acid taste/acid smell slightly unpleasant (10 ppb): 2
- Flavor judgment: number of panels who judged acid taste/acid smell quality the highest (10 ppb): 0
- N: number of panels, irritation of acid reduced to give a mild acid taste (10 ppb): 3
- X: number of panels, acid taste reduced but piercing odor characteristic to aldehydes unpleasant (10 ppb): 5
- A: number of panels, acid taste/acid smell extreme and cause irritation (20 ppt): 0
- B: number of panels, acid taste/acid smell slightly strong and slightly cause irritation (20 ppt): 0
- C: number of panels, acid taste/acid smell slightly unpleasant (20 ppt): 4
- Flavor judgment: number of panels who judged acid taste/acid smell quality the highest (20 ppt): 3
- N: number of panels, irritation of acid reduced to give a mild acid taste (20 ppt): 6
- X: number of panels, acid taste reduced but piercing odor characteristic to aldehydes unpleasant (20 ppt): 0
- A: number of panels, acid taste/acid smell extreme and cause irritation (50 ppb): 0
- B: number of panels, acid taste/acid smell slightly strong and slightly cause irritation (50 ppb): 0
- C: number of panels, acid taste/acid smell slightly unpleasant (50 ppb): 1
- Flavor judgment: number of panels who judged acid taste/acid smell quality the highest (50 ppb): 0
- N: number of panels, irritation of acid reduced to give a mild acid taste (50 ppb): 2
- X: number of panels, acid taste reduced but piercing odor characteristic to aldehydes unpleasant (50 ppb): 7
- A: number of panels, acid taste/acid smell extreme and cause irritation (100 ppt): 0
- B: number of panels, acid taste/acid smell slightly strong and slightly cause irritation (100 ppt): 2
- C: number of panels, acid taste/acid smell slightly unpleasant (100 ppt): 3
- Flavor judgment: number of panels who judged acid taste/acid smell quality the highest (100 ppt): 0
- N: number of panels, irritation of acid reduced to give a mild acid taste (100 ppt): 4
- X: number of panels, acid taste reduced but piercing odor characteristic to aldehydes unpleasant (100 ppt): 1
- A: number of panels, acid taste/acid smell extreme and cause irritation (500 ppt): 0
- B: number of panels, acid taste/acid smell slightly strong and slightly cause irritation (500 ppt): 0
- C: number of panels, acid taste/acid smell slightly unpleasant (500 ppt): 3
- Flavor judgment: number of panels who judged acid taste/acid smell quality the highest (500 ppt): 0
- N: number of panels, irritation of acid reduced to give a mild acid taste (500 ppt): 4
- X: number of panels, acid taste reduced but piercing odor characteristic to aldehydes unpleasant (500 ppt): 3

SMILES: CCCCC/C=C/C/C=C\CCC=O [(Z,E)-4,7-tridecadienal]
- A: number of panels, acid taste/acid smell extreme and cause irritation (0.005 ppt): 10
- B: number of panels, acid taste/acid smell slightly strong and slightly cause irritation (0.005 ppt): 0
- C: number of panels, acid taste/acid smell slightly unpleasant (0.005 ppt): 0
- Flavor judgment: number of panels who judged acid taste/acid smell quality the highest (0.005 ppt): 0
- N: number of panels, irritation of acid reduced to give a mild acid taste (0.005 ppt): 0
- X: number of panels, acid taste reduced but piercing odor characteristic to aldehydes unpleasant (0.005 ppt): 0
- A: number of panels, acid taste/acid smell extreme and cause irritation (0.02 ppt): 10
- B: number of panels, acid taste/acid smell slightly strong and slightly cause irritation (0.02 ppt): 0
- C: number of panels, acid taste/acid smell slightly unpleasant (0.02 ppt): 0
- Flavor judgment: number of panels who judged acid taste/acid smell quality the highest (0.02 ppt): 0
- N: number of panels, irritation of acid reduced to give a mild acid taste (0.02 ppt): 0
- X: number of panels, acid taste reduced but piercing odor characteristic to aldehydes unpleasant (0.02 ppt): 0
- A: number of panels, acid taste/acid smell extreme and cause irritation (0.1 ppt): 10
- B: number of panels, acid taste/acid smell slightly strong and slightly cause irritation (0.1 ppt): 0
- C: number of panels, acid taste/acid smell slightly unpleasant (0.1 ppt): 0
- Flavor judgment: number of panels who judged acid taste/acid smell quality the highest (0.1 ppt): 0
- N: number of panels, irritation of acid reduced to give a mild acid taste (0.1 ppt): 0
- X: number of panels, acid taste reduced but piercing odor characteristic to aldehydes unpleasant (0.1 ppt): 0
- A: number of panels, acid taste/acid smell extreme and cause irritation (0.2 ppt): 9
- B: number of panels, acid taste/acid smell slightly strong and slightly cause irritation (0.2 ppt): 1
- C: number of panels, acid taste/acid smell slightly unpleasant (0.2 ppt): 0
- Flavor judgment: number of panels who judged acid taste/acid smell quality the highest (0.2 ppt): 0
- N: number of panels, irritation of acid reduced to give a mild acid taste (0.2 ppt): 0
- X: number of panels, acid taste reduced but piercing odor characteristic to aldehydes unpleasant (0.2 ppt): 0
- A: number of panels, acid taste/acid smell extreme and cause irritation (0.5 ppt): 5
- B: number of panels, acid taste/acid smell slightly strong and slightly cause irritation (0.5 ppt): 3
- C: number of panels, acid taste/acid smell slightly unpleasant (0.5 ppt): 2
- Flavor judgment: number of panels who judged acid taste/acid smell quality the highest (0.5 ppt): 0
- N: number of panels, irritation of acid reduced to give a mild acid taste (0.5 ppt): 0
- X: number of panels, acid taste reduced but piercing odor characteristic to aldehydes unpleasant (0.5 ppt): 0
- A: number of panels, acid taste/acid smell extreme and cause irritation (1 ppb): 0
- B: number of panels, acid taste/acid smell slightly strong and slightly cause irritation (1 ppb): 0
- C: number of panels, acid taste/acid smell slightly unpleasant (1 ppb): 2
- Flavor judgment: number of panels who judged acid taste/acid smell quality the highest (1 ppb): 0
- N: number of panels, irritation of acid reduced to give a mild acid taste (1 ppb): 4
- X: number of panels, acid taste reduced but piercing odor characteristic to aldehydes unpleasant (1 ppb): 4
- A: number of panels, acid taste/acid smell extreme and cause irritation (1 ppt): 0
- B: number of panels, acid taste/acid smell slightly strong and slightly cause irritation (1 ppt): 3
- C: number of panels, acid taste/acid smell slightly unpleasant (1 ppt): 6
- Flavor judgment: number of panels who judged acid taste/acid smell quality the highest (1 ppt): 0
- N: number of panels, irritation of acid reduced to give a mild acid taste (1 ppt): 1
- X: number of panels, acid taste reduced but piercing odor characteristic to aldehydes unpleasant (1 ppt): 0
- A: number of panels, acid taste/acid smell extreme and cause irritation (5 ppt): 0
- B: number of panels, acid taste/acid smell slightly strong and slightly cause irritation (5 ppt): 2
- C: number of panels, acid taste/acid smell slightly unpleasant (5 ppt): 2
- Flavor judgment: number of panels who judged acid taste/acid smell quality the highest (5 ppt): 4
- N: number of panels, irritation of acid reduced to give a mild acid taste (5 ppt): 6
- X: number of panels, acid taste reduced but piercing odor characteristic to aldehydes unpleasant (5 ppt): 0
- A: number of panels, acid taste/acid smell extreme and cause irritation (10 ppb): 0
- B: number of panels, acid taste/acid smell slightly strong and slightly cause irritation (10 ppb): 0
- C: number of panels, acid taste/acid smell slightly unpleasant (10 ppb): 2
- Flavor judgment: number of panels who judged acid taste/acid smell quality the highest (10 ppb): 0
- N: number of panels, irritation of acid reduced to give a mild acid taste (10 ppb): 3
- X: number of panels, acid taste reduced but piercing odor characteristic to aldehydes unpleasant (10 ppb): 5
- A: number of panels, acid taste/acid smell extreme and cause irritation (20 ppt): 0
- B: number of panels, acid taste/acid smell slightly strong and slightly cause irritation (20 ppt): 1
- C: number of panels, acid taste/acid smell slightly unpleasant (20 ppt): 2
- Flavor judgment: number of panels who judged acid taste/acid smell quality the highest (20 ppt): 3
- N: number of panels, irritation of acid reduced to give a mild acid taste (20 ppt): 7
- X: number of panels, acid taste reduced but piercing odor characteristic to aldehydes unpleasant (20 ppt): 0
- A: number of panels, acid taste/acid smell extreme and cause irritation (50 ppb): 0
- B: number of panels, acid taste/acid smell slightly strong and slightly cause irritation (50 ppb): 0
- C: number of panels, acid taste/acid smell slightly unpleasant (50 ppb): 0
- Flavor judgment: number of panels who judged acid taste/acid smell quality the highest (50 ppb): 0
- N: number of panels, irritation of acid reduced to give a mild acid taste (50 ppb): 2
- X: number of panels, acid taste reduced but piercing odor characteristic to aldehydes unpleasant (50 ppb): 8
- A: number of panels, acid taste/acid smell extreme and cause irritation (100 ppt): 0
- B: number of panels, acid taste/acid smell slightly strong and slightly cause irritation (100 ppt): 0
- C: number of panels, acid taste/acid smell slightly unpleasant (100 ppt): 2
- Flavor judgment: number of panels who judged acid taste/acid smell quality the highest (100 ppt): 3
- N: number of panels, irritation of acid reduced to give a mild acid taste (100 ppt): 8
- X: number of panels, acid taste reduced but piercing odor characteristic to aldehydes unpleasant (100 ppt): 0
- A: number of panels, acid taste/acid smell extreme and cause irritation (500 ppt): 0
- B: number of panels, acid taste/acid smell slightly strong and slightly cause irritation (500 ppt): 1
- C: number of panels, acid taste/acid smell slightly unpleasant (500 ppt): 3
- Flavor judgment: number of panels who judged acid taste/acid smell quality the highest (500 ppt): 0
- N: number of panels, irritation of acid reduced to give a mild acid taste (500 ppt): 4
- X: number of panels, acid taste reduced but piercing odor characteristic to aldehydes unpleasant (500 ppt): 2
